Experimental data from ChEMBL document CHEMBL3797048, “Structure-activity relationship studies of new rifamycins containing l-amino acid esters as inhibitors of bacterial RNA polymerases” (Eur J Med Chem, 2016).
≈ marks a conversion by molar mass, not a printed value.

Key:
Staphylococcus aureus [1] = assay: Antibacterial activity against Staphylococcus aureus ATCC 25923 after 18 hrs by microdilution method; assay type: functional; settings: ATCC 25923, 18 h
Escherichia coli = assay: Antibacterial activity against Escherichia coli ATCC 25922 after 18 hrs by microdilution method; assay type: functional; settings: ATCC 25922, 18 h
Staphylococcus aureus [2] = assay: Antibacterial activity against methicillin resistant Staphylococcus aureus isolate 5 after 18 hrs by microdilution method; assay type: functional; settings: isolate 5, 18 h
Staphylococcus aureus [3] = assay: Antibacterial activity against methicillin resistant Staphylococcus aureus isolate 2 after 18 hrs by microdilution method; assay type: functional; settings: isolate 2, 18 h
[4] = system: Staphylococcus epidermidis; assay: Antibacterial activity against Staphylococcus epidermidis ATCC 12228 after 18 hrs by microdilution method; assay type: functional; settings: ATCC 12228, 18 h
Staphylococcus aureus [5] = assay: Antibacterial activity against Staphylococcus aureus ATCC 4163 after 18 hrs by microdilution method; assay type: functional; settings: ATCC 4163, 18 h
[6] = Octanol-water partition coefficient, logP of the compound after 1 hr by UV-vis spectrophotometric analysis; assay type: physicochemical
Staphylococcus aureus [7] = assay: Antibacterial activity against methicillin resistant Staphylococcus aureus isolate 4 after 18 hrs by microdilution method; assay type: functional; settings: isolate 4, 18 h
[8] = system: Staphylococcus epidermidis; assay: Antibacterial activity against Staphylococcus epidermidis ATCC 49134 after 18 hrs by microdilution method; assay type: functional; settings: ATCC 49134, 18 h
Staphylococcus aureus [9] = assay: Antibacterial activity against methicillin resistant Staphylococcus aureus isolate 1 after 18 hrs by microdilution method; assay type: functional; settings: isolate 1, 18 h
Staphylococcus aureus [10] = assay: Antibacterial activity against Staphylococcus aureus ATCC 6538 after 18 hrs by microdilution method; assay type: functional; settings: ATCC 6538, 18 h
Pseudomonas aeruginosa = assay: Antibacterial activity against Pseudomonas aeruginosa NCTC 6749 after 18 hrs by microdilution method; assay type: functional; settings: NCTC 6749, 18 h
[11] = Solubility in water at pH 7 by UV-vis spectrophotometric analysis; assay type: physicochemical
Staphylococcus aureus [12] = assay: Antibacterial activity against methicillin resistant Staphylococcus aureus isolate 3 after 18 hrs by microdilution method; assay type: functional; settings: isolate 3, 18 h

| SMILES | MIC (Staphylococcus aureus [1]) [µg/mL] | MIC (Escherichia coli) [µg/mL] | MIC (Staphylococcus aureus [2]) [µg/mL] | MIC (Staphylococcus aureus [3]) [µg/mL] | MIC [4] [µg/mL] | MIC (Staphylococcus aureus [5]) [µg/mL] | logP at 1 h [6] | MIC (Staphylococcus aureus [7]) [µg/mL] | MIC [8] [µg/mL] | MIC (Staphylococcus aureus [9]) [µg/mL] | MIC (Staphylococcus aureus [10]) [µg/mL] | MIC (Pseudomonas aeruginosa) [µg/mL] | solubility [11] [µg/mL] | MIC (Staphylococcus aureus [12]) [µg/mL] |
| --- | --- | --- | --- | --- | --- | --- | --- | --- | --- | --- | --- | --- | --- | --- |
| CCOC(=O)[C@H](Cc1c[nH]c2ccccc12)NCc1c2c(O)c3c(O)c(C)c4c(c3c1O)C(=O)[C@@](C)(O/C=C/[C@H](OC)[C@@H](C)[C@@H](OC(C)=O)[C@H](C)[C@H](O)[C@H](C)[C@@H](O)[C@@H](C)/C=C/C=C(/C)C(=O)N2)O4 | 1 (≈ 1.06 µM) | > 2 | 0.5 (≈ 0.531 µM) | 0.5 (≈ 0.531 µM) | 0.063 (≈ 0.0669 µM) | 0.5 (≈ 0.531 µM) | 2.48 | 0.5 (≈ 0.531 µM) | 0.063 (≈ 0.0669 µM) | 0.5 (≈ 0.531 µM) | 0.25 (≈ 0.265 µM) | > 2 | 30 (≈ 31.8 µM) | 0.5 (≈ 0.531 µM) |
| CCOC(=O)[C@H](Cc1ccccc1)NCc1c2c(O)c3c(O)c(C)c4c(c3c1O)C(=O)[C@@](C)(O/C=C/[C@H](OC)[C@@H](C)[C@@H](OC(C)=O)[C@H](C)[C@H](O)[C@H](C)[C@@H](O)[C@@H](C)/C=C/C=C(/C)C(=O)N2)O4 | 0.125 (≈ 0.138 µM) | > 2 | 0.125 (≈ 0.138 µM) | 0.125 (≈ 0.138 µM) | 0.063 (≈ 0.0698 µM) | 0.063 (≈ 0.0698 µM) | 2.63 | 0.125 (≈ 0.138 µM) | 0.125 (≈ 0.138 µM) | 0.063 (≈ 0.0698 µM) | 0.063 (≈ 0.0698 µM) | > 2 | 50 (≈ 55.4 µM) | 0.125 (≈ 0.138 µM) |
| CO[C@H]1/C=C/O[C@@]2(C)Oc3c(C)c(O)c4c(O)c(c(CN[C@@H](Cc5ccccc5)C(=O)OCc5ccccc5)c(O)c4c3C2=O)NC(=O)/C(C)=C\C=C\[C@H](C)[C@H](O)[C@@H](C)[C@@H](O)[C@@H](C)[C@H](OC(C)=O)[C@@H]1C | 2 (≈ 2.07 µM) | > 2 | 1 (≈ 1.04 µM) | – | 0.125 (≈ 0.13 µM) | 0.5 (≈ 0.518 µM) | 2.75 | 1 (≈ 1.04 µM) | 0.25 (≈ 0.259 µM) | 1 (≈ 1.04 µM) | 0.5 (≈ 0.518 µM) | > 2 | 20 (≈ 20.7 µM) | – |
| COC(=O)[C@H](Cc1c[nH]c2ccccc12)NCc1c2c(O)c3c(O)c(C)c4c(c3c1O)C(=O)[C@@](C)(O/C=C/[C@H](OC)[C@@H](C)[C@@H](OC(C)=O)[C@H](C)[C@H](O)[C@H](C)[C@@H](O)[C@@H](C)/C=C/C=C(/C)C(=O)N2)O4 | 0.063 (≈ 0.0679 µM) | > 2 | 0.063 (≈ 0.0679 µM) | – | 0.016 (≈ 0.0172 µM) | 0.031 (≈ 0.0334 µM) | 2.22 | 0.063 (≈ 0.0679 µM) | 0.016 (≈ 0.0172 µM) | 0.031 (≈ 0.0334 µM) | 0.031 (≈ 0.0334 µM) | > 2 | 60 (≈ 64.7 µM) | – |
| CCOC(=O)[C@H](CCCNC(=N)N)NCc1c2c(O)c3c(O)c(C)c4c(c3c1O)C(=O)[C@@](C)(O/C=C/[C@H](OC)[C@@H](C)[C@@H](OC(C)=O)[C@H](C)[C@H](O)[C@H](C)[C@@H](O)[C@@H](C)/C=C/C=C(/C)C(=O)N2)O4 | > 2 | – | – | 2 (≈ 2.19 µM) | 0.25 (≈ 0.274 µM) | 1 (≈ 1.1 µM) | 2.22 | – | 0.5 (≈ 0.548 µM) | 2 (≈ 2.19 µM) | 1 (≈ 1.1 µM) | – | 90 (≈ 98.7 µM) | 2 (≈ 2.19 µM) |
| CO[C@H]1/C=C/O[C@@]2(C)Oc3c(C)c(O)c4c(O)c(c(CN[C@@H](Cc5c[nH]c6ccccc56)C(=O)OCc5ccccc5)c(O)c4c3C2=O)NC(=O)/C(C)=C\C=C\[C@H](C)[C@H](O)[C@@H](C)[C@@H](O)[C@@H](C)[C@H](OC(C)=O)[C@@H]1C | 2 (≈ 1.99 µM) | > 2 | 1 (≈ 0.996 µM) | – | 0.25 (≈ 0.249 µM) | 1 (≈ 0.996 µM) | 2.72 | 1 (≈ 0.996 µM) | 0.25 (≈ 0.249 µM) | 1 (≈ 0.996 µM) | 1 (≈ 0.996 µM) | > 2 | < 10 | – |
| CO[C@H]1/C=C/O[C@@]2(C)Oc3c(C)c(O)c4c(O)c(c(/C=N/N5CCN(C)CC5)c(O)c4c3C2=O)NC(=O)/C(C)=C\C=C\[C@H](C)[C@H](O)[C@@H](C)[C@@H](O)[C@@H](C)[C@H](OC(C)=O)[C@@H]1C [RIFAMPIN] | 0.016 (≈ 0.0194 µM) | > 2 | 0.016 (≈ 0.0194 µM) | 0.016 (≈ 0.0194 µM) | 0.004 (≈ 0.00486 µM) | 0.008 (≈ 0.00972 µM) | – | 0.016 (≈ 0.0194 µM) | 0.008 (≈ 0.00972 µM) | 0.016 (≈ 0.0194 µM) | 0.008 (≈ 0.00972 µM) | > 2 | – | 0.016 (≈ 0.0194 µM) |
